The numbers were not newly measured in patent US5824771A, “Cyclic CRF agonists” (The Salk Institute for Biological Studies, priority 1997, dated 1998), which cites them from elsewhere.

“Also recorded” adds a separate entry of the source. Ends that are not written are not given here.

Series [1] deals with ACTH and β-endorphin secretion. The following applies: background statements; in vitro and in vivo or iv; cited from earlier work.
For series [2] the following is noted: background statements; injected peripherally or iv, mammals; cited from earlier work.
For series [3] the following is noted: background statement; cited from earlier work.

As for “oCRF: ovine corticotropin releasing factor, a 41-residue amidated peptide; the laboratory Standard (SQEPPISLDLTFHLLREVLEMTKADQLAQQAHSNRKLLDIA-NH2; UniProt P01142 148-188, looked up)”, the “stimulation of ACTH and β-endorphin secretion / activities, in words” value in series [1] is “stimulate the secretion of ACTH and β-endorphin; also recorded: stimulate ACTH and β-endorphin-like activities (β-END-Li) in vitro and in vivo”. The “lowering of blood pressure, in words” value in series [2] was “substantially lower blood pressure”. For the same substance, in series [3], the “gastric acid production, in words” value is recorded as “inhibit gastric acid production”.

As for “r/hCRF: rat/human CRF, a homologous amidated hentetracontapeptide; alternate standard (SEEPPISLDLTFHLLREVLEMARAEQLAQQAHSNRKLMEII-NH2; UniProt P06850 154-194, looked up)”, the “stimulation of ACTH and β-endorphin secretion / activities, in words” value in series [1] is “stimulate ACTH and β-endorphin-like activities (β-END-Li) in vitro and in vivo”. In addition, the “lowering of blood pressure, in words” value in series [2] is reported as “substantially lower blood pressure”. For the same substance, the “gastric acid production, in words” value in series [3] is “inhibit gastric acid production”.
